Assay results: patent publication US20050261264A1, “Rare-earth ternary complex” (priority 2000, published 2005)

How the values were obtained:
Type in all cases: physicochemical
[1] = Luminescence quantum yield and luminescence intensity in solution
Method: (§1) The intensity of luminescence and the luminescence quantum yield, the quotient of dividing the number of photons emitted from a sample by the number of photons absorbed into the sample, were measured with an SS-25 from JASCO Corporation.
The luminescence quantum yield of an acetonitrile solution of the Eu(PMS)3(TPPO)8 obtained in Example 1 (europium ion concentration: 0.05 mol/L) was measured (excitation wavelength: 465 nm, maximum luminescence wavelength: 612 nm, luminescence wavelength used in measurement: 612 nm).
The solutions prepared in Examples 12 to 14 and Comparative Examples 7 to 9 and Comparative Example B were measured for luminescence intensity at the respective maximum luminescence wavelengths.
The relative luminescence intensity of the solutions used in Examples 12 to 14 and Comparative Example B: (luminescence intensity in each of Examples 12 to 14)/(luminescence intensity in Comparative Example 7) was calculated, letting 1 be the luminescence intensity in Comparative Example 7 (solution of a rare earth complex in which the ligand Z was not coordinated).
Similarly, the relative luminescence intensity in Comparative Example 9: (luminescence intensity in Comparative Example 9)/(luminescence intensity in Comparative Example 8) was calculated, letting 1 be the luminescence intensity in Comparative Example 8 (solution of a known β-diketone-type of rare earth complex in which the ligand Z was not coordinated). The relative luminescence intensity of the solution used in Comparative Example B was 1.6 times.
The luminescence quantum yield of an acetone-d6 solution of the Nd(PMS)3(TPPO)8 obtained in Example 2 (neodymium ion concentration: 0.05 mol/L) was measured (excitation wavelength: 585 nm, maximum luminescence wavelength: 1064 nm, luminescence wavelength used in measurement: 1064 nm).
The solutions prepared in Examples 15 and 16 and Comparative Examples 10 were measured for luminescence intensity at the respective maximum luminescence wavelengths. The relative luminescence intensity in Examples 15 and 16: (luminescence intensity in each of Examples 15 and 16)/(luminescence intensity in Comparative Example 10) was calculated, letting 1 be the luminescence intensity in Comparative Example 10 (rare earth complex in which the ligand Z was not coordinated).

[2] = Miscibility with a polymer matrix, visual evaluation; parameters: key to Miscibility, PMMA: ⊚: dissolves up to 30 wt %; ◯: dissolves up to 5 wt %; Δ: disperses up to 5 wt %, but there is turbidity; X: repelled at the polymer surface
Method: (§2) The miscibility of the rare earth complex with various media was evaluated as follows.
2) Miscibility with a Polymer Matrix
The rare earth complex serving as the sample was added in the concentrations listed with the evaluation criteria below relative to various media, and the miscibility was visually evaluated according to the following criteria. • ⊚: dissolves up to 30 wt % • ◯: dissolves up to 5 wt % • Δ: disperses up to 5 wt %, but there is turbidity • X: repelled at the polymer surface

[3] = Luminescence quantum yield and luminescence intensity in PMMA polymer matrix composition; conditions: PMMA rod; for Luminescence quantum yield: rare earth ion 0.7 wt %
Method: as §1
A 1 mL quantity of refined anhydrous methyl methacrylate (MMA), 0.5 mg of AIBN, and 148 mg (0.7 wt %) as the rare earth ion concentration) of the Eu (PMS)3 (TPPO)8 obtained in Example 1 were mixed, the mixture was transferred to a Pyrex tube, and the inside of the tube was deaerated and then sealed. By reacting for 5 hours at 60° C., the polymerization of MMA was carried out. The resulting PMMA containing Eu(PMS)3 (TPPO)8 was taken out of the Pyrex tube, and a rod-shaped polymer matrix composition was obtained.
(§3) The polymer matrix compositions prepared in Examples 17 to 19 and Comparative Example 11 were measured for luminescence intensity at the respective maximum luminescence wavelengths. The relative luminescence intensity in Examples 17 to 19: (luminescence intensity in each of Examples 17 to 19)/(luminescence intensity in Comparative Example 11) was calculated, letting 1 be the luminescence intensity in Comparative Example 11 (rare earth complex in which the ligand Z was not coordinated).
A rod-shaped polymer matrix composition containing […] was obtained in the same manner as in Example 17, except that 148 mg (rare earth ion concentration: 0.7 wt %) of the Nd(PMS)3 (TPPO)8 obtained in Example 2 was used instead of Eu(PMS)3 (TPPO)8.
as §3, with “20 and 21” for “17 to 19”, “12” for “11”, “20 and 21:” for “17 to 19:”, “20 and 21)/(luminescence” for “17 to 19)/(luminescence”, “12)” for “11)”

[4] = Mechanoluminescence of polycarbonate film hit with a metal rod; conditions: polycarbonate film about 6 μm thick, visual
Method: The rare earth ternary complex of the present invention can be used as a mechanoluminescence material. The term mechanoluminescence as used here refers to a phenomenon whereby physical force (such as pressure, vibration energy or the like) imparted to the rare earth ternary complex is converted into optical energy, causing the complex to emit light.
A 50 mg quantity of the Eu(PMS)3(Phen)m obtained in Example 8 and 450 mg of polycarbonate were dissolved in 3 mL of methylene chloride and then uniformly stirred to obtain a polymer solution. This polymer solution was then cast onto a glass plate, after which it was dried in vacuo overnight to remove the solvent, forming a polycarbonate film containing Eu(PMS)3(Phen)m, which is about 6 μm thick, on the glass plate.
A polycarbonate film containing Eu(PMS)3, which is about 6 μm thick, was formed on a glass plate in the same manner as in Example 22, except that 42 mg of the Eu(PMS)3 prepared in Producing Example 1 was used instead of Eu(PMS)3 (Phen) m.

[5] = Number of moles of bound water per mole of complex (TG-DTA); conditions: for Bound water (number of moles of bound water per mole of complex): Table 1, dried samples for the ternary complexes
Method: The number of moles of bound water per mole of complex was measured using a TG-DTA 2000 from MAC Science.
A 20 g quantity of Eu(PMS)3 was added to 100 mL of isopropanol, then 43 g ([…] the molar amount of the Eu(PMS)3) of triphenylphosphine oxide (hereinafter referred to as TPPO) was added, and the system was refluxed for 3 hours, and then gradually cooled. The resulting white powder was filtered off. The white powder thus obtained was washed with hot n-hexane, and recrystallized with water-methanol to obtain 44 g of Eu(PMS)3(TPPO)8 in the form of white acicular crystals (yield: 85%). The TG-DTA was measured for these crystals, and it was found from the weight reduction at 100° C. that the number of moles of bound water per mole of complex was 2.93. The IR, NMR, UV absorption characteristics, and elemental analysis results for the obtained Eu(PMS)3(TPPO)8(H2O)2.93 are given below.
Eu(PMS)3(TPPO)8(H2O)2.93 obtained by the above synthesis method was dried in vacuo for 3 hours at 140° C. and a reduced pressure of […]. TG-DTA measurement for the resulting white powder was carried out to obtain a weight reduction at 100° C. It was found from the obtained value that the number of moles of bound water per mole of complex was 0.18.

[6] = Miscibility with solvents, visual evaluation at 5 wt %; parameters: key: ⊚: dissolves at room temperature; ◯: dissolves when heated for 5 minutes at 40° C.; Δ: dissolves under heating, but cooling precipitates crystals; X: does not dissolve; conditions: complex added at 5 wt %
Method: as §2
1) Miscibility with Solvents

[7] = acetonitrile solution, Eu 0.05 mol/L, relative to Eu(PMS)3 (Comparative Example 7) = 1
[8] = acetonitrile solution, europium ion 0.05 mol/L, excitation 465 nm, luminescence 612 nm
[9] = Eu 0.7 wt %, relative to Eu(PMS)3 (Comparative Example 11) = 1
[10] = after drying in vacuo at 140° C.
[11] = before drying (crystals as obtained), weight reduction at 100° C.
[12] = acetone-d6 solution, Nd 0.05 mol/L, relative to Nd(PMS)3 (Comparative Example 10) = 1
[13] = acetone-d6 solution, neodymium ion 0.05 mol/L, excitation 585 nm, luminescence 1064 nm
[14] = Nd 0.7 wt %, relative to Nd(PMS)3 (Comparative Example 12) = 1
[15] = excitation 585 nm, luminescence 1064 nm

O=S(=O)([N-]S(=O)(=O)C(F)(F)F)C(F)(F)F.O=S(=O)([N-]S(=O)(=O)C(F)(F)F)C(F)(F)F.O=S(=O)([N-]S(=O)(=O)C(F)(F)F)C(F)(F)F.[Eu+3].c1cnc2c(c1)ccc1cccnc12.c1cnc2c(c1)ccc1cccnc12.c1cnc2c(c1)ccc1cccnc12.c1cnc2c(c1)ccc1cccnc12 [Eu(PMS)3(Phen)m]
Relative luminescence intensity [1, 7]: 49.5
Luminescence quantum yield [1, 8]: 5.1%
Miscibility, Epoxy resin [2]: ◯ (dissolves up to 5 wt %)
Miscibility, Nafion [2]: ◯ (dissolves up to 5 wt %)
Miscibility, PMMA [2]: ◯ (dissolves up to 5 wt %)
Relative luminescence intensity [3, 9]: 5566
Light emission when film is hit with a metal rod (mechanoluminescence) [4]: emits red light
Bound water (number of moles of bound water per mole of complex) [5]: 0.00
Number of moles of bound water per mole of complex [5, 10]: water had been completely removed
Number of moles of bound water per mole of complex [5, 11]: 3.06
Miscibility, Acetone [6]: ⊚
Miscibility, Chloroform [6]: Δ
Miscibility, Toluene [6]: Δ
Miscibility, Water [6]: X

O=S(=O)([N-]S(=O)(=O)C(F)(F)F)C(F)(F)F.O=S(=O)([N-]S(=O)(=O)C(F)(F)F)C(F)(F)F.O=S(=O)([N-]S(=O)(=O)C(F)(F)F)C(F)(F)F.[Eu+3] [Eu(PMS)3, reference compound]
Relative luminescence intensity [1, 7]: 1.0
Luminescence quantum yield [1, 8]: 5.0%
Miscibility, Epoxy resin [2]: Δ (disperses up to 5 wt %, but there is turbidity)
Miscibility, Nafion [2]: Δ (disperses up to 5 wt %, but there is turbidity)
Miscibility, PMMA [2]: X
Relative luminescence intensity [3, 9]: 1.0
Luminescence quantum yield ([3]; excitation 465 nm, luminescence 612 nm): 2.5%
Light emission when film is hit with a metal rod (mechanoluminescence) [4]: no light emission was noted
Bound water (number of moles of bound water per mole of complex) [5]: 2.08
Miscibility, Acetone [6]: ⊚
Miscibility, Chloroform [6]: X
Miscibility, Toluene [6]: X
Miscibility, Water [6]: ⊚

O=P(c1ccccc1)(c1ccccc1)c1ccccc1.O=P(c1ccccc1)(c1ccccc1)c1ccccc1.O=P(c1ccccc1)(c1ccccc1)c1ccccc1.O=P(c1ccccc1)(c1ccccc1)c1ccccc1.O=P(c1ccccc1)(c1ccccc1)c1ccccc1.O=P(c1ccccc1)(c1ccccc1)c1ccccc1.O=P(c1ccccc1)(c1ccccc1)c1ccccc1.O=P(c1ccccc1)(c1ccccc1)c1ccccc1.O=S(=O)([N-]S(=O)(=O)C(F)(F)F)C(F)(F)F.O=S(=O)([N-]S(=O)(=O)C(F)(F)F)C(F)(F)F.O=S(=O)([N-]S(=O)(=O)C(F)(F)F)C(F)(F)F.[Nd+3] [Nd(PMS)3(TPPO)8]
Relative luminescence intensity [1, 12]: 1.4
Luminescence quantum yield [1, 13]: 1.1%
Miscibility, Epoxy resin [2]: ◯ (dissolves up to 5 wt %)
Miscibility, Nafion [2]: ◯ (dissolves up to 5 wt %)
Miscibility, PMMA [2]: ◯ (dissolves up to 5 wt %)
Relative luminescence intensity [3, 14]: 80
Luminescence quantum yield [3, 15]: 0.8%
Bound water (number of moles of bound water per mole of complex) [5]: 0.24
Number of moles of bound water per mole of complex [5, 10]: 0.24
Number of moles of bound water per mole of complex [5, 11]: 3.41
Miscibility, Acetone [6]: ⊚
Miscibility, Chloroform [6]: ⊚
Miscibility, Toluene [6]: ◯
Miscibility, Water [6]: X

O=S(=O)([N-]S(=O)(=O)C(F)(F)F)C(F)(F)F.O=S(=O)([N-]S(=O)(=O)C(F)(F)F)C(F)(F)F.O=S(=O)([N-]S(=O)(=O)C(F)(F)F)C(F)(F)F.[Nd+3] [Nd(PMS)3, reference compound]
Relative luminescence intensity [1, 12]: 1.0
Luminescence quantum yield [1, 13]: 0.8%
Miscibility, Epoxy resin [2]: Δ (disperses up to 5 wt %, but there is turbidity)
Miscibility, Nafion [2]: Δ (disperses up to 5 wt %, but there is turbidity)
Miscibility, PMMA [2]: X
Relative luminescence intensity [3, 14]: 1.0
Luminescence quantum yield [3, 15]: <0.1%
Bound water (number of moles of bound water per mole of complex) [5]: 2.32
Miscibility, Acetone [6]: ⊚
Miscibility, Chloroform [6]: X
Miscibility, Toluene [6]: X
Miscibility, Water [6]: ⊚
